Measured values reported in ChEMBL document CHEMBL5505997, “Synthesis and biological evaluation of novel peptidomimetic inhibitors of the coronavirus 3C-like protease” (Eur J Med Chem, 2024).

Tests used:
[1] = Cytotoxicity against human PBMC cells assessed as reduction in cell viability; type: toxicity, cell-based
[2] = Cytotoxicity against African green monkey Vero cells assessed as reduction in cell viability; type: toxicity, cell-based; conditions: chlorocebus sabaeus
[3] = test system: Huh-7; assay: (§1) Cytotoxicity against human Huh-7 cells assessed as reduction in cell viability; type: toxicity, cell-based; conditions: huh-7
[4] = test system: CCRF-CEM; assay: (§2) Cytotoxicity against human CEM cells assessed as reduction in cell viability; type: toxicity, cell-based; conditions: ccrf-cem
[5] = test system: SARS-CoV-2; assay: Antiviral activity against SARS-CoV-2 infected in Vero cells assessed as reduction in viral yield measured after 48 hrs by qRT-PCR analysis; type: functional, organism-based; conditions: Severe acute respiratory syndrome coronavirus 2, Vero; for EC50: 48 h; for EC90: time 48 hrs
[6] = test system: Human coronavirus OC43; assay: Antiviral activity against Human coronavirus OC43 infected in Vero cells assessed as reduction in viral yield preincubated with virus for 1 hr followed by washout and compound treatment and measured after 3 days by qRT-PCR analysis; type: functional, organism-based; conditions: Betacoronavirus 1, Vero; for EC90: 72 h, time 3 day
[7] = test system: SARS-CoV-2; assay: Antiviral activity against SARS-CoV-2 hCoV-19/USA-WA1/2020 Washington strain infected in Normal human bronchial/tracheal epithelial cells cultured in air-liquid interface media assessed as reduction in viral yield pretreated with compound followed by viral infection for 4 hrs post washout and measured 3 days after virus removal by qRT-PCR analysis; type: functional, organism-based; conditions: Severe acute respiratory syndrome coronavirus 2, hCoV-19/USA-WA1/2020 Washington, Epithelial cell
[8] = test system: Calu-3; assay: (§3) Cytotoxicity against human Calu-3 cells assessed as reduction in cell viability; type: toxicity, cell-based; conditions: calu-3
[9] = test system: SARS-CoV-2; assay: Antiviral activity against SARS-CoV-2 infected in human Caco-2 cells assessed as reduction in viral yield measured after 72 hrs by qRT-PCR analysis; type: functional, organism-based, Severe acute respiratory syndrome coronavirus 2; conditions: for EC90: Severe acute respiratory syndrome coronavirus 2, Caco-2, time 72 hrs
[10] = test system: SARS-CoV-2; assay: Selectivity ratio of EC50 for antiviral activity against SARS-CoV-2 infected in Vero cells to EC50 for antiviral activity against SARS-CoV-2 infected in human Calu-3 cells; type: functional, Severe acute respiratory syndrome coronavirus 2
[11] = Solubility of compound in PBS; type: physicochemical; conditions: buffer
[12] = test system: SARS-CoV-2; assay: Antiviral activity against SARS-CoV-2 infected in human Calu-3 cells assessed as reduction in viral yield measured after 72 hrs by qRT-PCR analysis; type: functional, organism-based, Severe acute respiratory syndrome coronavirus 2; conditions: for EC50: Severe acute respiratory syndrome coronavirus 2, Calu-3, 72 h; for EC90: Severe acute respiratory syndrome coronavirus 2, Calu-3, time 72 hrs
[13] = test system: SARS-CoV-2; assay: Selectivity ratio of EC50 for antiviral activity against SARS-CoV-2 infected in Vero cells to EC50 for antiviral activity against SARS-CoV-2 infected in human Caco-2 cells; type: functional, Severe acute respiratory syndrome coronavirus 2
[14] = test system: Caco-2; assay: (§4) Cytotoxicity against human Caco-2 cells assessed as reduction in cell viability; type: toxicity, cell-based; conditions: caco-2
[15] = test system: SARS-CoV-2; assay: Antiviral activity against SARS-CoV-2 hCoV-19/USA/GA-EHC-2811C/2021 (Omicron B.1.1.529) infected in human Calu-3 cells assessed as reduction in viral yield measured after 48 hrs by qRT-PCR analysis; type: functional, organism-based; conditions: Severe acute respiratory syndrome coronavirus 2, hCoV-19/USA/GA-EHC-2811C/2021 (Omicron B.1.1.529); for EC50: Calu-3, 48 h; for EC90: Calu-3, time 48 hrs
[16] = as §3; type: toxicity, cell-based; conditions: Calu-3 cells
[17] = as §4; type: toxicity, cell-based; conditions: Caco-2 cells
[18] = test system: SARS-CoV-2; assay: Antiviral activity against wild type SARS-CoV-2 Omicron BA.1 infected in HEK293T cells measured after 48 hrs by Nano-Glo luciferase assay; type: functional, organism-based; conditions: Severe acute respiratory syndrome coronavirus 2, Omicron BA.1, HEK-293T
[19] = test system: SARS-CoV-2; assay: Antiviral activity against wild type SARS-CoV-2 WA1 infected in HEK293T cells measured after 48 hrs by Nano-Glo luciferase assay; type: functional, organism-based; conditions: Severe acute respiratory syndrome coronavirus 2, WA1, HEK-293T
[20] = as §1; type: toxicity, cell-based; conditions: Huh-7 cells
[21] = as §2; type: toxicity, cell-based, CCRF-CEM; conditions: CEM (CCRF-CEM) cells

| Compound | CC50 ([1]; pbmc) | CC50 ([2]; vero) | CC50 [3] | CC50 [4] | EC50 [5] | EC90 [5] | EC50 [6] | EC90 [6] | other results |
| --- | --- | --- | --- | --- | --- | --- | --- | --- | --- |
| CC(C)C[C@H](NC(=O)[C@H](Cc1ccc(O)cc1)NC(=O)OCc1ccccc1)C(=O)N[C@H](C=O)C[C@@H]1CCCNC1=O | > 100 µM | > 100 µM | > 100 µM | > 100 µM | > 10 µM | > 10 µM | 8.5 µM | 47.6 µM |  |
| Cc1cc(C(=O)N[C@@H](Cc2cccc3ccccc23)C(=O)N[C@@H](CC(C)C)C(=O)N[C@@H](C[C@@H]2CCCNC2=O)C(O)C(=O)NC2CC2)no1 (stereo not given in full) | > 100 µM | > 100 µM | > 100 µM | > 100 µM | > 10 µM | > 10 µM | 36.7 µM | 87.4 µM |  |
| Cc1ccsc1C(=O)N[C@@H](Cc1cccc2ccccc12)C(=O)N[C@@H](CC(C)C)C(=O)N[C@H](C=O)C[C@@H]1CCCNC1=O | 51.5 µM | 53.1 µM | 35.1 µM | 16.3 µM | 2.2 µM | 4.8 µM | 0.3 µM | 0.8 µM |  |
| Cc1cc(C(=O)N[C@@H](Cc2cccc3ccccc23)C(=O)N[C@@H](CC(C)C)C(=O)N[C@@H](C[C@@H]2CCCNC2=O)C(O)S(=O)(=O)[O-])no1.[Na+] (stereo not given in full) | 58.6 µM | > 100 µM | 51.1 µM | 24.3 µM | 4.5 µM | 9.3 µM | 0.3 µM |  | EC50 [7]: 0.4 µM; EC90 [7]: 0.7 µM; CC50 [8]: > 100 µM; EC90 [9]: 1.7 µM; Ratio EC50 [10]: 3; solubility [11]: 400 µg/mL; EC50 [12]: 1.2 µM; EC90 [12]: 5.3 µM; Ratio EC50 [13]: 15; CC50 [14]: > 100 µM; EC50 [15]: 0.8 µM; EC90 [15]: 2.7 µM |
| CCC(CC)COC(=O)[C@H](C)N[P@](=O)(OC[C@H]1O[C@@](C#N)(c2ccc3c(N)ncnn23)[C@H](O)[C@@H]1O)Oc1ccccc1 | 4.9 µM |  | 1.4 µM | 11.2 µM | 3.2 µM | 4.7 µM | 0.01 µM | 0.03 µM | EC50 [7]: 0.5 µM; EC90 [7]: 0.9 µM; CC50 [16]: > 100 µM; EC50 ([9]; Severe acute respiratory syndrome coronavirus 2, Caco-2, 72 h): 0.03 µM; EC90 [9]: 0.2 µM; EC90 [12]: 0.7 µM; CC50 ([2]; Vero cells): > 100 µM; CC50 [17]: > 100 µM; EC50 [18]: 0.014 µM; EC50 [15]: 0.2 µM; EC90 [15]: 0.6 µM; EC50 [19]: 0.01 µM |
| CC(C)C[C@H](NC(=O)[C@H](Cc1cccc2ccccc12)NC(=O)OCc1ccccc1)C(=O)N[C@H](C#N)C[C@@H]1CCCNC1=O | > 100 µM | > 100 µM | > 100 µM | > 100 µM | > 10 µM | > 10 µM | 0.7 µM | 5.1 µM |  |
| CC(C)C[C@H](NC(=O)[C@H](Cc1cccc2ccccc12)NC(=O)OCc1ccccc1)C(=O)N[C@H](C=O)C[C@@H]1CCCNC1=O | 42.4 µM | > 100 µM | 38.9 µM | 24.3 µM | 2.6 µM | 5.9 µM | 0.7 µM | 1 µM |  |
| CCOC(=O)/C=C/[C@H](C[C@@H]1CCCNC1=O)NC(=O)[C@H](CC(C)C)NC(=O)[C@H](Cc1cccc2ccccc12)NC(=O)c1cc(C)on1 | > 100 µM | > 100 µM | 51.4 µM | 33.4 µM | > 10 µM | > 10 µM | 7.3 µM | 9.7 µM |  |
| CC(C)(C)[C@H](NC(=O)C(F)(F)F)C(=O)N1C[C@H]2[C@@H]([C@H]1C(=O)N[C@H](C#N)C[C@@H]1CCNC1=O)C2(C)C |  |  |  |  | 3.7 µM | 5.6 µM | 0.2 µM | 0.3 µM | EC50 [7]: 0.03 µM; EC90 [7]: 0.2 µM; CC50 [16]: > 100 µM; CC50 ([1]; PBMC cells): > 100 µM; EC90 [9]: 0.3 µM; EC50 [12]: 1.9 µM; EC90 [12]: 7.6 µM; CC50 ([2]; Vero cells): > 100 µM; CC50 [20]: > 100 µM; CC50 [21]: > 100 µM; CC50 [17]: > 100 µM; EC50 [18]: 0.11 µM; EC50 [15]: 0.7 µM; EC90 [15]: 5.3 µM; EC50 [19]: 0.034 µM |
| CC(C)C[C@H](NC(=O)[C@H](Cc1cccc2ccccc12)NC(=O)OCc1ccccc1)C(=O)N[C@H](C=O)Cn1ccnn1 | 35.7 µM | 35.7 µM | 25.3 µM | 25.3 µM | 4.7 µM | 9.5 µM | 53.5 µM | 99 µM |  |
| CC(C)C[C@H](NC(=O)[C@H](Cc1ccc(F)cc1)NC(=O)OCc1ccccc1)C(=O)N[C@H](C=O)C[C@@H]1CCCNC1=O | > 100 µM | > 100 µM | > 100 µM | > 100 µM | 6.7 µM | 7.4 µM | 0.8 µM | 2.6 µM |  |
| CC(C)C[C@H](NC(=O)[C@H](Cc1cccc2ccccc12)NC(=O)OCc1ccccc1)C(=O)N[C@H](/C=C(\C#N)C(N)=O)C[C@@H]1CCCNC1=O | > 100 µM | > 100 µM | 29 µM | 29 µM | > 10 µM | > 10 µM | 0.9 µM | 7 µM |  |
| CC(C)C[C@H](NC(=O)[C@H](Cc1cccc2ccccc12)NC(=O)OCc1ccccc1)C(=O)N[C@H](C=O)CNC(=O)N1CCC1 | > 100 µM | > 100 µM | 43.6 µM | 43.6 µM | > 10 µM | > 10 µM | 18 µM | 84 µM |  |
| CC(C)C[C@H](NC(=O)[C@H](Cc1cccc2ccccc12)NC(=O)c1cc(C(F)(F)F)on1)C(=O)N[C@H](C=O)C[C@@H]1CCCNC1=O | 49.9 µM | 49.9 µM | 42.5 µM | 20.3 µM | 6.1 µM | 9.9 µM | 0.7 µM | 1 µM |  |
